# How the values were obtained:
# [1] = biological target: T1, ATP-dependent translocase ABCB1 (Homo sapiens, UniProt P08183); experiment: TP_TRANSPORTER: transepithelial transport (basal to apical) in MDR1-expressing LLC-PK1 cells; type: functional, cell-based; conditions: pig
# [2] = biological target: T1, ATP-dependent translocase ABCB1; experiment: TP_TRANSPORTER: inhibition of Daunorubicin transepithelial transport (basal to apical) (Daunorubicin: 0.1 uM) in MDR1-expressing LLC-PK1 cells; type: functional, cell-based
# T1 sequence (P08183 whole entry): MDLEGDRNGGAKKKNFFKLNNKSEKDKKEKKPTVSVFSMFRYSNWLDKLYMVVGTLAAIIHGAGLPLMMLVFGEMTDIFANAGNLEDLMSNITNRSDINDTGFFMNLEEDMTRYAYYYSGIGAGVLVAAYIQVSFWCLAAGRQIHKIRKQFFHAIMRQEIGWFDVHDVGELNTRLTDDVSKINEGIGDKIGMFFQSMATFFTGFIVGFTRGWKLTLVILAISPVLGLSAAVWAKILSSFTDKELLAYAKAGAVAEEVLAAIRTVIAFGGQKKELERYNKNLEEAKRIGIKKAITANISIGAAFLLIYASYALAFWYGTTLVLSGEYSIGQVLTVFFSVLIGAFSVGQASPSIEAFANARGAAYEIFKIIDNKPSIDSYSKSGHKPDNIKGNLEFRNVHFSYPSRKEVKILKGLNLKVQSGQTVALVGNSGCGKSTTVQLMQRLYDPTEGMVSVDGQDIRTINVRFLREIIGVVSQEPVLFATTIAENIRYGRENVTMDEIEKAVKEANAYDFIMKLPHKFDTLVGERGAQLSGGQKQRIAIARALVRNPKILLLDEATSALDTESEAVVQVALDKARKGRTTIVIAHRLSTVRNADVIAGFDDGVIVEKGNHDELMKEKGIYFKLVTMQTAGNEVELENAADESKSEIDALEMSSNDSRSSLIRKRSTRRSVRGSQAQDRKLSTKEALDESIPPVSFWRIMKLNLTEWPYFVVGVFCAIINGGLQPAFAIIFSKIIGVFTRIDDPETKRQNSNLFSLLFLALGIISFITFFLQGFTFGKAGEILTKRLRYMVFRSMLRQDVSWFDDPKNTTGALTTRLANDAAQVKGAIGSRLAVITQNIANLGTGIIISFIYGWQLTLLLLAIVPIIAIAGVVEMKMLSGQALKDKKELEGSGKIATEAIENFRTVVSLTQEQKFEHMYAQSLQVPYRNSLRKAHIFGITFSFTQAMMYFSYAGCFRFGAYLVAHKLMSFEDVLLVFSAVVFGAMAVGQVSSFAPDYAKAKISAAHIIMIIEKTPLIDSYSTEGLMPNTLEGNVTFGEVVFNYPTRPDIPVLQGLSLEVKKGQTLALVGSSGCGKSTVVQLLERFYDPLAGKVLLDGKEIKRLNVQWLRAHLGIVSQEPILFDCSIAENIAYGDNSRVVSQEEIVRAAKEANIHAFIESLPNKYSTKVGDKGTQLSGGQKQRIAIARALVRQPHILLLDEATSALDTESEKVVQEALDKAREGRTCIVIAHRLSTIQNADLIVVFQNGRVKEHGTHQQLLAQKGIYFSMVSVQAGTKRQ
smiles,measurement,setting,value
COc1ccc2cc1Oc1cccc(c1)C[C@H]1c3c(cc4c(c3Oc3cc5c(cc3OC)CCN(C)[C@@H]5C2)OCO4)CCN1C [CEPHARANTHIN],Activity,[1],substrate [+]
same,IC50,[2],2060 nM
